Reference: ChEMBL document CHEMBL3045654, “Mechanisms of Low Susceptibility to Imidacloprid in a Laboratory Strain of the Small Brown Planthopper, Laodelphax striatellus FALLEN” (J Pestic Sci, 1997)

Legend:
Laodelphax striatellus [1] = test: Insecticidal activity againstLaodelphax striatella S (small brown planthopper) treated topically after 24 hr; assay type: functional; details: topical
Laodelphax striatellus [2] = test: Insecticidal activity againstLaodelphax striatella N (small brown planthopper) treated topically after 24 hr in presence of 20 ng/insect of […]; assay type: functional; details: topical
Laodelphax striatellus [3] = test: Insecticidal activity againstLaodelphax striatella N (small brown planthopper) treated topically after 24 hr in presence of 40 ng/insect of piperonylbutoxide; assay type: functional; details: topical
Laodelphax striatellus [4] = test: Drug penetration inLaodelphax striatella S (small brown planthopper) at 0.1 ng/insect treated topically after 1 hr; assay type: ADME, organism-based; details: in vivo, topical_or_ocular
Laodelphax striatellus [5] = test: Insecticidal activity againstLaodelphax striatella N (small brown planthopper) treated topically after 24 hr in presence of 2 ng/insect of tributylphosportrithioate; assay type: functional; details: topical
Laodelphax striatellus [6] = test: Insecticidal activity againstLaodelphax striatella N (small brown planthopper) treated topically after 24 hr; assay type: functional; details: topical
Laodelphax striatellus [7] = test: Drug penetration inLaodelphax striatella N (small brown planthopper) at 0.1 ng/insect treated topically after 1 hr; assay type: ADME, organism-based; details: in vivo, topical_or_ocular

**Q.** O=[N+]([O-])NC1=NCCN1Cc1ccc(Cl)nc1 [IMIDACLOPRID] was tested. Which LD50 (Laodelphax striatellus [1]) did it give?
**A.** 0.12 mg/kg

**Q.** What about the LD50 (Laodelphax striatellus [2]) of the same compound?
**A.** 1.19 mg/kg

**Q.** What about the LD50 (Laodelphax striatellus [3]) of the same compound?
**A.** 1.11 mg/kg

**Q.** And the Drug uptake (Laodelphax striatellus [4])?
**A.** 20%

**Q.** What about the LD50 (Laodelphax striatellus [5]) of the same compound?
**A.** 1.06 mg/kg

**Q.** And the LD50 (Laodelphax striatellus [6])?
**A.** 2.17 mg/kg

**Q.** What about the Drug uptake (Laodelphax striatellus [7]) of the same compound?
**A.** 20%
